From US12060347B2 (BRISTOL-MYERS SQUIBB COMPANY, priority 2016, dated 2024) come the findings set out here.

As a reminder, the IC50 is the concentration that inhibits the measured activity by half.

The test deals with T1, human PAR4 (Homo sapiens, UniProt Q96RI0).
T1 construct: expressed in transfected cells; host or cells: HEK293 PAR4 Clone 1.2A (BMS Arctic ID 383940)
T1 sequence (Q96RI0 18-385): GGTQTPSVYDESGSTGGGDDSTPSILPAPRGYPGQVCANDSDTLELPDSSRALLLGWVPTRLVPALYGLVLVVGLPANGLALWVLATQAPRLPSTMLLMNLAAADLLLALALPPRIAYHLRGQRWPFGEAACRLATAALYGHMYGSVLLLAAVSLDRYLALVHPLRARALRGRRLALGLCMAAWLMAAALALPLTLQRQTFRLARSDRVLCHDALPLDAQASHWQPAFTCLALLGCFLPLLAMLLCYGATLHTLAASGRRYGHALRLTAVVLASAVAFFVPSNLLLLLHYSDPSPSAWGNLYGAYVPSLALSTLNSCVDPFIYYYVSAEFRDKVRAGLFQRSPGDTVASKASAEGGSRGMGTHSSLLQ
Put plainly: PAR4 FLIPR assay: antagonism of agonist-peptide-induced calcium mobilization in PAR4-expressing HEK293 cells. It is filed as cell-based. As to conditions: H-Ala-Phe(4-F)-[…]NH2-induced intracellular calcium mobilization, 11-point curves. Background: A change in cytosolic calcium serves as a functional read-out for many receptors and channels.
Take `COCc1cnc2c(-c3nc4c(C)c(F)c(OCCO)cc4s3)cc(C)cc2n1` [Example 289, 2-((5-fluoro-2-(2-(methoxymethyl)-7-methylquinoxalin-5-yl)-4-methylbenzo[d]thiazol-6-yl)oxy)ethanol]: the IC50 amounted to 1.3 nM.

In the case of `COCc1cnc2c(-c3nc4c(C)c(F)c(O)cc4s3)cc(C)cc2n1` [Example 290, 5-fluoro-2-(2-(methoxymethyl)-7-methylquinoxalin-5-yl)-4-methylbenzo[d] thiazol-6-ol], the 50% inhibitory concentration (IC50) worked out at 6 nM.

As for `COCc1cnc2c(-c3nc4c(Cl)c(F)c(O)cc4s3)cc(C)cc2n1` [Example 291, 4-chloro-5-fluoro-2-(2-(methoxymethyl)-7-methylquinoxalin-5-yl) benzo[d]thiazol-6-ol], the IC50 amounted to 11 nM.

For the compound `COCc1cnc2c(-c3nc4c(Cl)c(F)c(OCC(=O)OC)cc4s3)cc(C)cc2n1` [Example 292, methyl 2-((4-chloro-5-fluoro-2-(2-(methoxymethyl)-7-methylquinoxalin-5-yl)benzo[d]thiazol-6-yl)oxy)acetate], the IC50 amounted to 0.8 nM.

Take `COCc1cnc2c(-c3nc4c(Cl)c(F)c(OCCO)cc4s3)cc(C)cc2n1` [Example 293, 2-((4-chloro-5-fluoro-2-(2-(methoxymethyl)-7-methylquinoxalin-5-yl)benzo[d]thiazol-6-yl)oxy)ethanol]: the IC50 worked out at 1 nM.

Consider `COc1cnc2c(-c3nc4c(C)c(F)c(OC)cc4s3)cc(C)cc2n1` [Example 294, 5-fluoro-6-methoxy-2-(2-methoxy-7-methylquinoxalin-5-yl)-4-methylbenzo[d]thiazole], for which the IC50 came to 5.2 nM.

With `COCc1cnc2c(-c3nc4c(C)c(F)c(OC)cc4s3)cc(C)cc2n1` [Example 295, 5-fluoro-6-methoxy-2-(2-(methoxymethyl)-7-methylquinoxalin-5-yl)-4-methylbenzo[d]thiazole], the half-inhibitory concentration (IC50) was 0.7 nM.

Take `COCc1cnc2c(-c3nc4c(C)c(C)c(OCC(=O)OC)cc4s3)cc(C)cc2n1` [Example 296, methyl 2-((2-(2-(methoxymethyl)-7-methylquinoxalin-5-yl)-4,5-dimethylbenzo[d]thiazol-6-yl)oxy)acetate]: the IC50 came to 1.2 nM.

As for `COCc1cnc2c(-c3nc4c(C)c(C)c(OCCO)cc4s3)cc(C)cc2n1` [Example 297, 2-((2-(2-(methoxymethyl)-7-methylquinoxalin-5-yl)-4,5-dimethylbenzo[d]thiazol-6-yl)oxy)ethanol], the IC50 is 5.7 nM.

With `COCc1cnc2c(-c3nc4c(Cl)c(C)c(OC)cc4s3)cc(C)cc2n1` [Example 298, 4-chloro-6-methoxy-2-(2-(methoxymethyl)-7-methylquinoxalin-5-yl)-5-methylbenzo[d]thiazole], the concentration for half-maximal inhibition (IC50) came to 2.1 nM.

Turning to `COc1cnc2c(-c3nc4c(Cl)c(C)c(OC)cc4s3)cc(C)cc2n1` [Example 299, 4-chloro-6-methoxy-2-(2-methoxy-7-methylquinoxalin-5-yl)-5-methylbenzo[d] thiazole], the IC50 was found to be 10 nM.

As for `COCc1cnc2c(-c3nc4c(CO)c(C)c(OC)cc4s3)cc(C)cc2n1` [Example 300], the 50% inhibitory concentration (IC50) turned out to be 0.9 nM.

For the compound `COc1cnc2c(-c3nc4c(CO)c(C)c(OC)cc4s3)cc(C)cc2n1` [Example 301], the IC50 stood at 15 nM.

`COc1cnc2c(-c3nc4c(C)c(F)c(OCCOC(=O)Nc5ccc(F)nc5)cc4s3)cc(C)cc2n1` [Example 302, 2-((5-fluoro-2-(2-methoxy-7-methylquinoxalin-5-yl)-4-methylbenzo[d]thiazol-6-yl)oxy)ethyl (6-fluoropyridin-3-yl)carbamate]: the half-maximal inhibitory concentration (IC50) was found to be 3.2 nM.

For the compound `COCc1cnc2c(-c3nc4c(C)c(F)c(OCCOC(=O)Nc5ccc(F)nc5)cc4s3)cc(C)cc2n1` [Example 303, 2-((5-fluoro-2-(2-(methoxymethyl)-7-methylquinoxalin-5-yl)-4-methylbenzo[d]thiazol-6-yl)oxy)ethyl (6-fluoropyridin-3-yl) carbamate], the half-maximal inhibitory concentration (IC50) came to 0.9 nM.

With `COc1cnc2c(-c3nc4c(Cl)c(F)c(OCCOC(=O)Nc5ccc(F)nc5)cc4s3)cc(C)cc2n1` [Example 304, 2-((4-chloro-5-fluoro-2-(2-methoxy-7-methylquinoxalin-5-yl)benzo[d]thiazol-6-yl)oxy)ethyl (6-fluoropyridin-3-yl)carbamate], the IC50 came out at 2.3 nM.

Regarding `COCc1cnc2c(-c3nc4c(Cl)c(F)c(OCCOC(=O)Nc5ccc(F)nc5)cc4s3)cc(C)cc2n1` [Example 305, 2-((4-chloro-5-fluoro-2-(2-(methoxymethyl)-7-methylquinoxalin-5-yl)benzo[d]thiazol-6-yl)oxy)ethyl (6-fluoropyridin-3-yl)carbamate], the concentration for half-maximal inhibition (IC50) was 1 nM.

Consider `CCOc1cc(C)c2nc(-c3cc(C)cc4nc(COC)cnc34)sc2c1` [Example 306], for which the 50% inhibitory concentration (IC50) came to 1 nM.

For the compound `COCc1cnc2c(-c3nc4c(C)cc(OCc5ccccc5)cc4s3)cc(C)cc2n1` [Example 307, 6-(benzyloxy)-2-(2-(methoxymethyl)-7-methylquinoxalin-5-yl)-4-methylbenzo[d]thiazole], the IC50 was 0.9 nM.

`COCc1cnc2c(-c3nc4ccc(CO)cc4s3)cc(C)cc2n1` [Example 308, (2-(2-(methoxymethyl)-7-methylquinoxalin-5-yl)benzo[d]thiazol-6-yl)methanol]: the concentration for half-maximal inhibition (IC50) was determined as 3.6 nM.

Consider `COCc1ccc2nc(-c3cc(C)cc4nc(COC)cnc34)sc2c1` [Example 309, 6-(methoxymethyl)-2-(2-(methoxymethyl)-7-methylquinoxalin-5-yl)benzo[d]thiazole], for which the IC50 came out at 3.3 nM.

`COCc1cnc2c(-c3nc4cc(O)c(OC)cc4s3)cc(C)cc2n1` [Example 310, 6-methoxy-2-(2-(methoxymethyl)-7-methylquinoxalin-5-yl)benzo[d]thiazol-5-ol]: the half-inhibitory concentration (IC50) turned out to be 9.1 nM.

For `COCc1cnc2c(-c3nc4cc(OC)c(OC)cc4s3)cc(C)cc2n1` [Example 311, 5,6-dimethoxy-2-(2-(methoxymethyl)-7-methylquinoxalin-5-yl)benzo[d]thiazole], the IC50 was found to be 93 nM.

As for `COCc1cnc2c(-c3nc4cc(CO)c(OC)cc4s3)cc(C)cc2n1` [Example 312, (6-methoxy-2-(2-(methoxymethyl)-7-methylquinoxalin-5-yl)benzo[d]thiazol-5-yl) methanol], the concentration for half-maximal inhibition (IC50) is 6.7 nM.

Consider `COCc1cnc2c(-c3nc4c(OC)c(F)c(Cl)cc4s3)cc(C)cc2n1` [Example 313, 6-chloro-5-fluoro-4-methoxy-2-(2-(methoxymethyl)-7-methylquinoxalin-5-yl) benzo[d]thiazole], for which the IC50 was found to be 2.9 nM.

For the compound `COCc1cnc2c(-c3nc4c(C5CC5)c(F)c(OC)cc4s3)cc(C)cc2n1` [Example 314, 4-cyclopropyl-5-fluoro-6-methoxy-2-(2-(methoxymethyl)-7-methylquinoxalin-5-yl)benzo[d]thiazole], the IC50 came to 10 nM.

Consider `CCOc1cc2sc(-c3cc(C)cc4nc(OC)cnc34)nc2c(F)c1F` [Example 315, 6-ethoxy-4,5-difluoro-2-(2-methoxy-7-methylquinoxalin-5-yl)benzo[d]thiazole], for which the IC50 was 3.3 nM.

In the case of `COc1cnc2c(-c3nc4c(F)c(F)c(OCCNS(=O)(=O)c5cccc(F)c5)cc4s3)cc(C)cc2n1` [Example 316, N-(2-((4,5-difluoro-2-(2-methoxy-7-methylquinoxalin-5-yl)benzo[d]thiazol-6-yl)oxy)ethyl)-3-fluorobenzenesulfonamide], the IC50 was 4.9 nM.

On to `COCc1cnc2c(-c3nc4c(F)c(F)c(OCCNS(=O)(=O)c5cccc(F)c5)cc4s3)cc(C)cc2n1` [Example 317, N-(2-((4,5-difluoro-2-(2-(methoxymethyl)-7-methylquinoxalin-5-yl)benzo[d]thiazol-6-yl)oxy)ethyl)-3-fluorobenzenesulfonamide], for which the half-maximal inhibitory concentration (IC50) amounted to 4.5 nM.

As to `COc1cnc2c(-c3nc4c(Cl)c(F)c(OCCO)cc4s3)cc(C)cc2n1` [Example 318, 2-((4-chloro-5-fluoro-2-(2-methoxy-7-methylquinoxalin-5-yl)benzo[d]thiazol-6-yl)oxy)ethanol], the IC50 is 7.8 nM.

In the case of `COCc1cnc2c(-c3nc4c(C)c(C)c(OCC(C)(C)O)cc4s3)cc(C)cc2n1` [Example 319, 1-((2-(2-(methoxymethyl)-7-methylquinoxalin-5-yl)-4,5-dimethylbenzo[d]thiazol-6-yl)oxy)-2-methylpropan-2-ol], the half-inhibitory concentration (IC50) worked out at 7.3 nM.

On to `COCc1cnc2c(-c3nc4c(C)c(C)c(OCCOC(=O)OC)cc4s3)cc(C)cc2n1` [Example 320, 2-((2-(2-(methoxymethyl)-7-methylquinoxalin-5-yl)-4,5-dimethylbenzo[d]thiazol-6-yl)oxy)ethyl methyl carbonate], for which the half-maximal inhibitory concentration (IC50) was found to be 3.4 nM.

Turning to `COc1cnc2c(-c3nc4c(Cl)c(F)c(OCC(=O)N5CCOCC5)cc4s3)cc(C)cc2n1` [Example 324, 2-((4-chloro-5-fluoro-2-(2-methoxy-7-methylquinoxalin-5-yl)benzo[d]thiazol-6-yl)oxy)-1-morpholinoethanone], the IC50 came to 42 nM.

Consider `[2H]C([2H])(O)c1c(C)c(OC)cc2sc(-c3cc(C)cc4nc(COC)cnc34)nc12` [Example 325], for which the IC50 came to 0.7 nM.

For the compound `COCc1cnc2c(-c3nc4c(C(C)O)c(C)c(OC)cc4s3)cc(C)cc2n1` (stereo not drawn) [Example 326, 1-(6-methoxy-2-(2-(methoxymethyl)-7-methylquinoxalin-5-yl)-5-methylbenzo[d]thiazol-4-yl)ethanol], the IC50 was 1.1 nM.

For `COCc1cnc2c(-c3nc4c(Cl)c(C)c(OCCO)cc4s3)cc(C)cc2n1` [Example 327, 2-((4-chloro-2-(2-(methoxymethyl)-7-methylquinoxalin-5-yl)-5-methylbenzo[d]thiazol-6-yl)oxy)ethanol], the IC50 came out at 5.2 nM.
